These results are taken from patent US10730863B2, “Bridged bicyclic compounds as farnesoid X receptor modulators” (BRISTOL-MYERS SQUIBB COMPANY, priority 2017, dated 2020).

For test [1] the following is noted: 6-week trial, T2DM patients with NAFLD; cited from earlier work.
For test [2] the following is noted: 72-week trial, patients with NASH, liver biopsies; cited from earlier work.
The target in test [3] is T1, FXR (Homo sapiens (Human), UniProt Q96RI1). Put plainly: FXR EC50 (FXR agonist activity reported with each example). It counts as cell-based.
The subject of test [4] is Cypa7a1, Ffg15. Put plainly: Mouse in vivo (Cyp7a1 / Fgf15 response). Particulars: 3 mg/kg, @ 6 h.
For test [5], the system named is Cyp7a1. In words: Acute mouse PK/PD: Cyp7a1 gene expression in liver. It counts as in vivo. Particulars: for Cyp7a1 (fold change@ 6 h relative to Vehicle): mouse PD. The procedure: (§1) In Vivo Testing Example: Acute Mouse PK/PD
(§2) Male, C57BL6/NTac mice, weighing 25-28 g, are purchased from Taconic Labs (Hudson, N.Y.) and maintained on Teklad Global 18% Protein Rodent Diet (Harlan Laboratories). After 1 week acclimation, mice are sorted into groups based upon body weight. Mice are administered a single oral dose of vehicle or experimental compound. Systemic compound exposure is evaluated in plasma derived from blood collected via the submandibular vein at 1 hour post-dose, and at study termination (6 h). At study termination, the animals are euthanized and rapidly dissected. The medial lobe of the liver is divided, with one half being homogenized and analyzed for compound exposure, and the other half saved in RNAlater (Thermo-Fisher Scientific). The ileum is also dissected and preserved in RNAlater. Tissue samples in RNAlater are homogenized with MP Biomedicals' beads. RNA is extracted using the MagMax-96 Total RNA Isolation kit (Thermo-Fisher Scientific) according to the manufacturer's protocol. RNA Concentration is determined with the Nano-Drop 8000 Spectrophotometer (Thermo Fisher). Reverse transcription is done with Invitrogen's SuperScript® VILO cDNA Synthesis Kit according to the manufacturer's protocol. Real time PCR is done with Applied Biosystems' Taqman PCR master mixture according to the manufacturer's protocol. All primers are purchased from Thermo-Fisher Scientific. Mouse genes analyzed include Nr0b2 (which encodes the small heterodimer partner, SHP), Abcb11 (which encodes the bile salt excretion pump, BSEP), Cyp7a1, & Cyp8b1 in liver, and Fgf15, Fabp6 (which encodes ileal bile acid binding protein, I-BABP), Slc51a (which encodes organic solute transporter alpha subunit, OSTA), and Slc51b (which encodes organic solute transporter beta subunit, OSTB) in the ileum. The statistical significant changes in FGF15 gene expression are expressed as fold increase and CYP7A1 expression as a percent reduction relative to vehicle control.

Test [6] deals with Fgf15. In words: Acute mouse PK/PD: Fgf15 gene expression in ileum. It counts as in vivo. Particulars: for Fgf15 (fold change@ 6 h relative to Vehicle): mouse PD. The procedure:
as §1, §2

For test [7], the target named is T1, FXR. Put plainly: transient human FXR/Gal4-luciferase reporter assay. The class given is cell-based. The following applies: Gal4-hFXR LBD fusion in HEK293 reporter cells; relative to 8 μM GW-4064. The procedure: The exemplified compounds of the present invention were tested in the transient human FXR/Gal4-luciferase reporter assay, and assay results were described in the EXAMPLES section hereinbefore.
A Gal4-hFXR fusion construct reporter system was used as the primary assay to characterize compound activity. A construct including 5 copies of the Gal4 promoter response element upstream of a firefly luciferase reporter cDNA was stably expressed in HEK293 cells. This reporter cell line was maintained in Dulbecco's Modified Eagle's medium (DMEM; Gibco) supplemented with 1% penicillin-streptomycin (P/S) solution, 500 μg/ml Zeocin and 10% charcoal/dextran-treated fetal bovine serum (cs-FBS) at 37° C. in a humidified 5% CO2 atmosphere. Another plasmid was constructed in which the human cytomegalovirus promoter in the pcDNA3.1 vector directs the expression of the cDNA encoding a fusion protein comprised of the DNA binding domain from the Gal4 transcription factor fused to the ligand binding domain from human FXR.
The day prior to transfection, the reporter cells in culture are detached from the plate with trypsin and plated into a T75 flask at a sufficient density to achieve approximately 90% confluence the next morning. The transfection reagents are prepared by separately diluting 25 μg of the pcDNA3.1-Gal4-FXR plasmid into 1.87 mL of Opti-MEM (Thermo-Fisher), and 40 μL of Lipofectamine 2000 (Thermo-Fisher) into 1.87 mL of Opti-MEM, and then adding the diluted DNA solution into the diluted Lipofectamine 2000 solution and incubating at room temperature for 15-20 minutes. The mixture is further diluted with 10 mL of a solution comprised of DMEM, 10% cs-FBS, and 1% P/S immediately prior to transferring to the cells. The maintenance culture media is aspirated from the cells and the final transfection mixture is added before the cells are incubated overnight at 37° C. in a humidified 5% CO2 atmosphere. This protocol can be scaled up, and the transiently transfected cells can be cryopreserved in an assay-ready format.
For compound testing, 100 nL of the compounds (serial dilutions in DMSO) are dispensed with an Echo acoustic dispenser (Labcyte) into the wells of a Corning/Costar clear bottom 384-well white plate. The transfected cells are harvested, counted, and diluted such that 10-25,000 cells in 25 μL are plated into each well of the 384-well compound assay plate. The compound-treated cells are incubated overnight at 37° C. in a humidified 5% CO2 atmosphere. The next morning 25 μL of Steady-Glo (Promega) are added to each well of the plate, the mixture is incubated for 15 min. with shaking, and luminescence is measured on an Envision (Perkin Elmer) plate reader. Background counts from cells treated with DMSO alone are subtracted from all raw counts, and the corrected values are converted to a percentage of the control response attained with 8 μM GW-4064.

pEC50: −log10 of the molar value.

T1 sequence (Q96RI1 262-486): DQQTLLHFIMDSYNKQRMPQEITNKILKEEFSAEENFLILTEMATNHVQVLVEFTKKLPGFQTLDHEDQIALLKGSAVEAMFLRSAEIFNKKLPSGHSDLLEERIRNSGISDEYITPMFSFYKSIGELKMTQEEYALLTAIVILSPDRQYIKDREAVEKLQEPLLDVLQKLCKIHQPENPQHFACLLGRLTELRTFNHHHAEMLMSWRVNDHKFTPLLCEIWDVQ

On to `CC[C@H]1[C@@H](O)[C@@H]2[C@H](CC[C@]3(C)[C@@H]([C@H](C)CCC(=O)O)CC[C@@H]23)[C@@]2(C)CC[C@@H](O)C[C@@H]12` [OCA, obeticholic acid], for which, in test [1], the body weight entry is recorded as “reduced” and the insulin sensitivity entry was “statistically significantly improved”. For the same compound, the “hepatic steatosis, lobular inflammation, hepatocyte ballooning, and fibrosis” value in test [2] is “statistically significantly improved”.

As usually defined, the pEC50 is the EC50 on a negative log10 scale, so that one unit is a factor of ten. A higher pEC50 goes with a small EC50. `CN1CCN(c2nc(C(=O)O)cc3ccc(C#CC45CCC(OCc6c(-c7c(Cl)cncc7Cl)noc6C6CC6)(CC4)CC5)cc23)CC1` [Example 519, 7-((4-((5-cyclopropyl-3-(3,5-dichloropyridin-4-yl)isoxazol-4-yl)methoxy)bicyclo[2.2.2]octan-1-yl)ethynyl)-1-(4-methylpiperazin-1-yl)isoquinoline-3-carboxylic acid] gave a pEC50 in test [3] of 7.55. In test [4], the Cypa7a1 was −92% and the Ffg15 entry was “+1.4 ×”.

For the compound `O=C(O)c1cc(C(F)(F)F)c2cc(OCC34CCC(OCc5c(-c6c(Cl)cncc6Cl)noc5C5CC5)(CC3)CC4)ccc2n1` [Example 101, 6-((4-((5-cyclopropyl-3-(3,5-dichloropyridin-4-yl)isoxazol-4-yl)methoxy)bicyclo[2.2.2]octan-1-yl)methoxy)-4-(trifluoromethyl)quinoline-2-carboxylic acid], the pEC50 in test [3] is 8.10. The “Cyp7a1 (fold change@ 6 h relative to Vehicle)” value in test [5] (dose 3 mg/kg) stood at 0.06 fold change. Further, the “Fgf15 (fold change@ 6 h relative to Vehicle)” value in test [6] (dose 3 mg/kg) stood at 21 fold change.

Compound `CN1CCN(c2nc(C(=O)O)cc3ccc(/C=C/C45CCC(OCc6c(-c7c(Cl)cncc7Cl)noc6C6CC6)(CC4)CC5)cc23)CC1` [Example 629] showed a pEC50 in test [7] of 7.46. Also, in test [5] (mouse, 3 mg/kg single oral dose, @ 6 h, liver), the “Mouse in vivo Cyp7a1 (printed Cypa7a1), change relative to vehicle” value is −97%. Also, in test [6] (mouse, 3 mg/kg single oral dose, @ 6 h, ileum), the “Mouse in vivo Fgf15 (printed Ffg15), fold increase relative to vehicle” value is reported as “+7.1 x”.

For `O=C(O)c1cccc(-c2noc(C34CCC(OCc5c(-c6c(Cl)cccc6Cl)noc5C5CC5)(CC3)CC4)n2)c1` [Example 27], in test [5] (dose 30 mg/kg), the “Cyp7a1 (fold change@ 6 h relative to Vehicle)” value was 0.10 fold change. In addition, the “Fgf15 (fold change@ 6 h relative to Vehicle)” value in test [6] (dose 30 mg/kg) is given as 2.8 fold change.

The compound `O=C(O)COc1ccc(/C=C/C23CCC(OCc4c(-c5c(Cl)cncc5Cl)noc4C4CC4)(CC2)CC3)c(F)c1` [Example 608] showed a pEC50 in test [7] of 5.99.

For the compound `O=C(O)c1cc2ccc(C#CC34CCC(OCc5c(-c6c(Cl)cncc6Cl)noc5C5CC5)(CC3)CC4)cc2c(N2CCC(O)C2)n1` (centres unmarked) [Example 557], in test [7], the negative-log EC50 (pEC50) is 6.73.

As to `Cc1c(OCC23CCC(OCc4c(-c5c(Cl)cncc5Cl)noc4C4CC4)(CC2)CC3)nn(CC2COC2)c1C(=O)O` [Example 533], the pEC50 in test [7] was 5.72.
